Reference: US8580773B2, “Small-molecule inhibitors of the androgen receptor” (The Regents of the University of California, priority 2008, dated 2013)
Residue numbers refer to the chain shown, from its start. “Also recorded” adds a separate entry of the source. Counter-ions that a name gives are not always drawn.

How the values were obtained:
[1] = molecular target: T1, human androgen receptor (Homo sapiens, UniProt P10275); assay: Screen of 1040 FDA-approved drugs and natural products for AR antagonists (MMTV-luciferase transcription assay and C-AR-Y FRET conformation assays); assay type: cell-based; settings: test compounds at 10 μM, 10 nM DHT, 24 hours; validated by dose-response
T1 construct: expressed in transfected cells; host or cells: HEK293 and LAPC4 stably expressing C-AR-Y; HEK293 transiently transfected with native AR
T1 sequence (P10275 1-920): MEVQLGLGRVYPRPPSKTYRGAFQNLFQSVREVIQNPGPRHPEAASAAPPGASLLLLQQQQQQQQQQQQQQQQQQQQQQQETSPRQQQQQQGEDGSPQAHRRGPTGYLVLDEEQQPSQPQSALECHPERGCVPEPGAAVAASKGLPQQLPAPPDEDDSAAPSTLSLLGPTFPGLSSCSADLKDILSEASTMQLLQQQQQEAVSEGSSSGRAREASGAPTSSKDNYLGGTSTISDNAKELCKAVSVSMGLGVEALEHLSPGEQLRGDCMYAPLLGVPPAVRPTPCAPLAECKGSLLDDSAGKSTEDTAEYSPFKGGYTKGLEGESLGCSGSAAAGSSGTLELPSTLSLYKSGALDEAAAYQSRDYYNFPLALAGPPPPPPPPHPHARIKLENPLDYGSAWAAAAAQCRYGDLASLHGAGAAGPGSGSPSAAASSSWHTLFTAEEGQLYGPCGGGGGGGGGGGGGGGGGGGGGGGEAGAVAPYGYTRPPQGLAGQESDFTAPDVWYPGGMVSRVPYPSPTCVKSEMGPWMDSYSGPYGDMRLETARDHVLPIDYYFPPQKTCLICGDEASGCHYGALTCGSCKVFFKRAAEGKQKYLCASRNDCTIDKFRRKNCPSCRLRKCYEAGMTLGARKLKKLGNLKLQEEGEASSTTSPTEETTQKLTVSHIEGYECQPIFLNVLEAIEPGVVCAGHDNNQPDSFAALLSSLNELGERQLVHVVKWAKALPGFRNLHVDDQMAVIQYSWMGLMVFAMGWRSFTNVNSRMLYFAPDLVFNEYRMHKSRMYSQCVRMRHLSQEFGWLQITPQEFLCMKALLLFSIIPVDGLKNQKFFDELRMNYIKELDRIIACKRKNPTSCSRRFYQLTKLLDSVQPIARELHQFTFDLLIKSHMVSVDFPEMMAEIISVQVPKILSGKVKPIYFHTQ
Protocol: A library assembled by the NINDS was screened. The library consisted of 1040 FDA-approved drugs and natural products. A basic strategy to select and compare compounds from each of the primary screens was established (FIG. 1).
The transcription assay was conducted by transfecting 10 cm plates of HEK293 cells with plasmids encoding MMTV-luciferase, SV40-renilla luciferase, and native AR. […] FRET is fluorescence resonance energy transfer between cyan and yellow fluorescent protein derivatives (CFP, YFP) that are fused to the amino and carboxyl termini of the human androgen receptor. When ligand activates the receptor, a conformational change takes place that brings the CFP and YFP into close proximity, thereby allowing FRET to occur. This spectroscopic change is detected using a fluorescence plate reader.
For the transcription assay, transfected cells were pooled before being plated into 96-well dishes with the test compounds at 10 μM. […] Cell and compound transfers were accomplished with a liquid handling robot. Cells were cultured for 24 hours in the presence of 10 nM DHT and the test compounds. After 24 hours, cells were either lysed by freeze-thaw (transcription assay), or fixed in 4% paraformaldehyde for reading on the FPR (FRET assays). Each compound was tested in duplicate in the initial screen.
The compounds were sorted on the basis of anti-androgen effects. […] This eliminated situations in which one test gave a strong response, and the replicate had none. […] For the FRET assays, toxic compounds were easily detected because of their effect on raw CFP and YFP signal, and compounds that reduced this signal below two standard deviations were eliminated.
The top 50 compounds identified in each primary assay were then tested in the other two assays.

[2] = molecular target: T2, AR with a mutation (T877A) (Homo sapiens, UniProt P10275, T878A); assay: PSA-luciferase reporter transcription assay in LNCaP cells; assay type: cell-based; settings: 3 nM DHT
T2 construct: that each express endogenous AR; endogenous in cells; host or cells: LNCaP
T2 sequence (P10275 1-920 T878A): T1 sequence (P10275 1-920) with T878A
Protocol: Cells were transfected with two reporter plasmids, a PSA-luciferase construct (androgen responsive), and an SV40-renilla luciferase construct as an internal control. The following day, the cells were split and drugs added in the presence of 3 nM DHT. Luciferase production was measured the following day (Dual luciferase assay kit, Promega).
Synergism can be defined as a combination index of less than one, using the non-exclusive assumption described by Chou et al. (Chou, T. C. and P. Talalay, Quantitative analysis of dose-effect relationships: the combined effects of multiple drugs or enzyme inhibitors. Adv Enzyme Regul, 1984. 22: p. 27-55).

[3] = molecular target: T3, AR (Homo sapiens, UniProt P10275, T878A); assay: DHT titration against inhibitor, PSA-luciferase reporter in LNCaP cells (competitive vs non-competitive); assay type: cell-based; settings: moderate dose of inhibitor, DHT titrated
T3 construct: that each express endogenous AR; endogenous in cells; host or cells: LNCaP

[4] = tested on: HEK293 cells; assay: Cell proliferation (DNA content, DAPI) in control HEK293 cells; assay type: cell-based; settings: PP 100 nM, HH 100 nM, BiC 1 μM
Source text: LN-AR cells were created by retroviral infection of a high-expressing AR vector into LNCaP cells, and proliferate independent of androgen in cell culture, unlike their parental line (Chen, C. D., et al., Molecular determinants of resistance to antiandrogen therapy. Nat Med, 2004. 10(1): p. 33-9). HEK293 cells were used as a control. Cells were transferred to charcoal-stripped media two days before they were split and plated in quadruplicate at a density of approximately 20,000 cells/well in 48-well plates. […] Media were changed every day, using a single preparation to ensure consistent compound concentrations. Proliferation was determined by measuring the DNA content of the cells in each well. Each day, the cells in four wells were fixed in 100% cold methanol, followed by staining for 5 min at RT with 0.2 ng/mL 4′,6-diamidino-2-phenylindole (DAPI) in PBS. The cells were washed once in PBS, then read on a fluorescence plate reader using 365/439 excitation/emission wavelengths. LAPC4 and LNCaP cells proliferated to a much greater degree in the presence of DHT, while LN-AR cells proliferated in the presence and absence of DHT.

[5] = tested on: prostate; assay: Prostate weight in mice after four weeks of treatment; assay type: in vivo; settings: male mice, 5 times per week for four weeks; BiC 100 mg/kg PO, PP 1 mg/kg IP, or the combination
Protocol: Animals were treated 5 times per week for four weeks. At the end of the study period, animals were sacrificed and prostate tissue weighed. After weighing, the tissue was divided in half for pathological and genetic studies. […] (FIG. 7).

[6] = molecular target: T4, native androgen receptor (Homo sapiens, UniProt P10275); assay: PSA-luciferase reporter with CMV-renilla control in LAPC4 cells (THP); assay type: cell-based; settings: LAPC4, DHT and increasing amounts of compound
T4 construct: that each express endogenous AR; endogenous in cells; host or cells: LAPC4
T4 sequence (P10275 1-920): T1 sequence (P10275 1-920)
Source text: LAPC4 cells, a prostate cancer cell line that expresses native androgen receptor, were transfected with a PSA-luciferase reporter, and a CMV-renilla luciferase control.

[7] = tested on: prostate; assay: Prostate wet weight in FVB male mice after 5 weeks of treatment; assay type: in vivo
[8] = tested on: dorsal prostate; assay: Histology of mouse dorsal prostate after 5 weeks of treatment; assay type: in vivo; settings: FVB male mice, THP or BiC alone, or combination
[9] = tested on: androgen-regulated genes in the prostate; assay: Quantitative PCR of androgen-regulated genes in mouse prostate, normalized to RPL19; assay type: in vivo; settings: mice
Protocol: A cohort of mice were castrated as a positive control.
For quantitative PCR, RNA was isolated from mouse prostates and reverse-transcribed. The expression of several androgen-regulated genes, of which a subset is shown (FIG. 13), was determined by using QPCR and normalizing to the expression of the housekeeping gene RPL19.

T3 sequence (P10275 whole entry T878A): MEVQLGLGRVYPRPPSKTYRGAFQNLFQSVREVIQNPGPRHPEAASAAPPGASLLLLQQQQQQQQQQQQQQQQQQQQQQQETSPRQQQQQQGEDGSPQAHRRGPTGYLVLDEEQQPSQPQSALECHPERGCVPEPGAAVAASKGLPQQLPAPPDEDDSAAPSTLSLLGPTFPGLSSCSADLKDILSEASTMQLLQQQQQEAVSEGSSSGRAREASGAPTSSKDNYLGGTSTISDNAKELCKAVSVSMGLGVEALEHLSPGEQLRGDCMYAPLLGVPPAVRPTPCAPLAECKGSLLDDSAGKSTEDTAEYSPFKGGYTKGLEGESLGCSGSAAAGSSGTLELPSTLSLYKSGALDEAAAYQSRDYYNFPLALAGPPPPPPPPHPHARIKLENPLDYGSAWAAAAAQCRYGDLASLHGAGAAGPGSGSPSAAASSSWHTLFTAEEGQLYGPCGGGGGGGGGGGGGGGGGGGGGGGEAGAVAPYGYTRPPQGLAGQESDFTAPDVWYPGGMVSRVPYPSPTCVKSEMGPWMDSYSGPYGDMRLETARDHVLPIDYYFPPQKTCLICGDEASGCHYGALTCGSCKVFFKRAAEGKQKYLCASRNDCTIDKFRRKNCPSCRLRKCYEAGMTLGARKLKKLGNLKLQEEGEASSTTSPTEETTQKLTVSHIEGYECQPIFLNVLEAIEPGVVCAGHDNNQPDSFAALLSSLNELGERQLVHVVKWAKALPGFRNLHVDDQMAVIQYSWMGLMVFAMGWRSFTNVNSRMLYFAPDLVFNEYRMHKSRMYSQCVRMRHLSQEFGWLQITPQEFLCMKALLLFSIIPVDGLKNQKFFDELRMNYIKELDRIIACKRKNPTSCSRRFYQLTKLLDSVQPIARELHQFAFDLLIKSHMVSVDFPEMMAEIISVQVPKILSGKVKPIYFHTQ

COc1cc2ccc(=O)oc2cc1O [Scopoletin]
Anti-androgen activity in screen [1]: previously unrecognized anti-androgen activity

Harman
IC50 [2]: 380 nM

CC(C)(O)C(=O)Nc1ccc([N+](=O)[O-])c(C(F)(F)F)c1 [OH—F, hydroxy-flutamide, reference compound]
Anti-androgen activity in screen [1]: top hits
Mode of antagonism on DHT titration [3]: DHT overcame the inhibitory effect; also recorded: consistent with a competitive antagonist

Cc1cc(/C=C/c2ccc3cc(N(C)C)ccc3[n+]2C)c(C)n1-c1ccccc1 [PP, 6-Dimethylamino-2-[2-(2,5-dimethyl-1-phenyl-1H-pyrrol-3-yl)-vinyl]-1-methyl-quinolinium, pamoate salt, reference compound]
Non-specific growth inhibition [4]: Neither compound exhibited non-specific growth inhibition

O=c1ccc2cc(O[C@@H]3O[C@H](CO)[C@@H](O)[C@H](O)[C@H]3O)c(O)cc2o1 [Esculin]
Anti-androgen activity in screen [1]: previously unrecognized anti-androgen activity

CC(O)(CS(=O)(=O)c1ccc(F)cc1)C(=O)Nc1ccc(C#N)c(C(F)(F)F)c1 (stereo not shown) [BiC, bicalutamide]
Reduction of prostate weight [5]: 35%

Cc1cc(/C=C/C2CCc3cc(N(C)C)ccc3N2C)c(C)n1-c1ccccc1 (stereo not shown) [THP, {2-[2-(2,5-Dimethyl-1-phenyl-1H-pyrrol-3-yl)-vinyl]-1-methyl-1,2,3,4-tetrahydro-quinolin-6-yl}-dimethyl-amine]
Inhibition of androgen receptor-mediated transcription (normalized luciferase activity) [6]: strong inhibition of androgen receptor-mediated transcription
Appearance of the prostate ([7]; 20 mg/kg THP, 5 weeks): abnormal milky appearance of the prostate
Change in prostate wet weight ([7]; 5 weeks daily M-F, 1 mg/kg PP, 100 mg/kg BiC, 20 mg/kg THP, or 2 mg/kg THP + 100 mg/kg BiC): did not reduce overall wet weight
Atrophy of the dorsal prostate by histological examination [8]: modest atrophy
Expression of androgen-regulated genes in the prostate (QPCR) ([9]; 2 mg/kg THP): modest effects
Expression of androgen-regulated genes in the prostate (QPCR) ([9]; 20 mg/kg THP): significantly decreased the transcription of many androgen regulated genes
